15 molecules from patent publication EP3586876A1, “GLUCOSE-SENSITIVE PEPTIDE HORMONES” (Gubra ApS, priority 2018, dated 2020) can be followed below.

Molecules are shown by their SMILES.

This data set in a line: Hydrolysis of linkers with or without glucose present (half-life by LC-MS or UPLC). It counts as physicochemical. As to conditions: pH 7.4, 37°C, 0.42 mM linker. How it is done: 1.3-1.8 mg of linkers was dissolved in 100 µL DMSO or 100 µL MeCN. 10 µL was taken out from the DMSO stock solution, diluted with 90µL DMSO and dissolved in 900 µL 1xPBS buffer containing 10 000 equiv glucose, pH 7.4 or 900 µL 1xPBS buffer pH 7.4, to give a final concentration of 0.42 mM of the linker. 10 µL was taken out from the MeCN stock solution, diluted with 40 µL MeCN and dissolved in 950 µL 1xPBS buffer containing 10 000 equiv glucose, pH 7.4 or 950 µL 1xPBS buffer pH 7.4 to give a final concentration of 0.42 mM of the linker. The samples were incubated at 37°C and continuously analysed by LC-MS or UPLC.

The mark [1] stands for this setting: 5% MeCN in PBS buffer, 10.000 equiv Glc.
Where [2] appears, read: 10% DMSO in PBS buffer, 10.000 equiv Glc.

As to `COc1ccccc1C1N[C@H](C(=O)OCc2ccccc2)CS1` (stereo partly drawn) [Linker 10, Benzyl (4R)-2-(2-methoxyphenyl)-1,3-thiazolidine-4-carboxylic acid], the “Half-life of the linker” value reads like this: under setting [1], 45 h; under setting [2], 23 h.

With `O=C(O)[C@@H]1CSC(Cc2ccccc2)N1` (some centres unmarked) [Linker 6], the “Half-life of the linker” value under setting [2] is recorded as 24 h and the “Half-life of the linker” value (10% DMSO in PBS buffer, no Glc) is reported as more than 72 h.

With `COC(=O)[C@@H]1OC(c2ccccc2OC)O[C@H]1C(=O)OC` [Linker 19], the “Half-life of the linker” value runs as follows: under setting [1], 2.5 h; (5% MeCN in PBS buffer, no Glc) 2.5 h; under setting [2], 1.5 h; (10% DMSO in PBS buffer, no Glc) 1.7 h.

On to `CC(=O)Nc1ccc(C2N[C@H](C(=O)OCc3ccccc3)CS2)cc1` (stereo partly drawn) [Linker 11, Benzyl (4R)-2-(4-acetamidophenyl)-1,3-thiazolidine-4-carboxylic acid], for which the “Half-life of the linker” value is recorded as more than 72 h under setting [1] and more than 72 h under setting [2].

As to `COc1ccc(C2N[C@H](C(=O)O)CS2)cc1` (some centres unmarked) [Linker 2], the “Half-life of the linker” value is, setting by setting: under setting [2], 2 h; (10% DMSO in PBS buffer, no Glc) 4 h.

As for `COC(=O)[C@@H]1OC(c2ccc(OC)cc2)O[C@H]1C(=O)OC` [Linker 17], the “Half-life of the linker” value stood at 2.2 h under setting [1]; 2.2 h (5% MeCN in PBS buffer, no Glc); 1.1 h under setting [2]; 1.8 h (10% DMSO in PBS buffer, no Glc).

Turning to `O=C(O)[C@@H]1CSC(c2ccc([N+](=O)[O-])cc2)N1` (some centres unmarked) [Linker 5], the “Half-life of the linker” value is more than 24 h under setting [2] and more than 72 h (10% DMSO in PBS buffer, no Glc).

For the molecule `O=C(OCc1ccccc1)[C@@H]1CSC(c2ccccc2)N1` (stereo partly drawn) [Linker 7, Benzyl (4R)-2-phenyl-1,3-thiazolidine-4-carboxylic acid], the “Half-life of the linker” value by setting is: under setting [1], more than 48 h; under setting [2], more than 48 h.

As to `CC(C)(C)OC(=O)N1C(c2ccccc2)OC[C@H]1C(=O)OCc1ccccc1` (some centres unmarked) [Linker 15], the “Half-life of the linker” value reads like this: under setting [1], more than 72 h; (5% MeCN in PBS buffer, no Glc) more than 72 h; under setting [2], more than 72 h; (10% DMSO in PBS buffer, no Glc) more than 72 h.

With `COc1ccc(C2OC[C@@H](C(=O)OCc3ccccc3)N2C(=O)OC(C)(C)C)cc1` (some centres unmarked) [Linker 13], the “Half-life of the linker” value runs as follows: under setting [1], more than 72 h; (5% MeCN in PBS buffer, no Glc) more than 72 h; under setting [2], more than 72 h; (10% DMSO in PBS buffer, no Glc) more than 72 h.

Regarding `O=C(O)[C@@H]1CSC(c2ccccc2O)N1` (some centres unmarked) [Linker 3], the “Half-life of the linker” value by setting is: under setting [2], 0.5 h; (10% DMSO in PBS buffer, no Glc) 2 h.

In the case of `COc1cccc(C2N[C@H](C(=O)OCc3ccccc3)CS2)c1` (stereo partly drawn) [Linker 9, Benzyl (4R)-2-(3-methoxyphenyl)-1,3-thiazolidine-4-carboxylic acid], the “Half-life of the linker” value runs as follows: under setting [1], more than 72 h; under setting [2], more than 72 h.

Regarding `COc1ccc(C2N[C@H](C(=O)OCc3ccccc3)CS2)cc1` (stereo partly drawn) [Linker 8, Benzyl (4R)-2-(4-methoxyphenyl)-1,3-thiazolidine-4-carboxylic acid], the “Half-life of the linker” value reads like this: under setting [1], 46 h; under setting [2], 42 h.

Consider `COc1ccc(C2N[C@H](C(=O)O)CS2)cc1O` (some centres unmarked) [Linker 4], for which the “Half-life of the linker” value was determined as 4 h under setting [2] and 10 h (10% DMSO in PBS buffer, no Glc).

In the case of `O=C(O)[C@@H]1CSC(c2ccccc2)N1` (some centres unmarked) [Linker 1], the “Half-life of the linker” value is listed as 12 h under setting [2] and more than 48 h (10% DMSO in PBS buffer, no Glc).
